# Reference: PubChem BioAssay AID200 (DTP/NCI, 2004)
# Values joined by “and” are separate entries in the source; they are usually repeats but may differ in a detail not shown here. Equal entries are not always repeated. Toxic doses and inconclusive results are not listed. Where a SMILES comes first, the peptide text is derived from it. [ ]: non-standard residue; d: D form. The star is where a group is joined. Nle = CCCC[CH](N)C(=O)O; Cbz = O=C(OCc1ccccc1)*; Nva = CCC[CH](N)C(=O)O
# Test system: B6C3F1 mice, B16 melanoma ip, median survival T/C
# Assay: NCI In Vivo Anticancer Drug Screen. Data for tumor model B16 Melanoma (intraperitoneal) in B6C3F1 mice
# Details: endpoint: median survival time, higher = longer survival
# Procedure, shortened: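 Tumor-bearing mice received test compound; a separate group got vehicle only. Survival was then compared, with results reported as treated over control.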
# [1] = dose: 3.12 mg/kg/injection, schedule: Q01DX009 (ip), vehicle: saline with Tween-80
# [2] = dose: 6.25 mg/kg/injection, schedule: Q01DX009 (ip), vehicle: Klucel (hydroxypropylcellulose) (HPC)
# [3] = dose: 6.25 mg/kg/injection, schedule: Q01DX009 (ip), vehicle: saline with Tween-80
# [4] = dose: 12.5 mg/kg/injection, schedule: Q01DX009 (ip), vehicle: Klucel (hydroxypropylcellulose) (HPC)
# [5] = dose: 12.5 mg/kg/injection, schedule: Q01DX009 (ip), vehicle: saline with Tween-80
# [6] = dose: 25.0 mg/kg/injection, schedule: Q01DX009 (ip), vehicle: Klucel (hydroxypropylcellulose) (HPC)
# [7] = dose: 25.0 mg/kg/injection, schedule: Q01DX009 (ip), vehicle: saline with Tween-80
# [8] = dose: 50.0 mg/kg/injection, schedule: Q01DX009 (ip), vehicle: Klucel (hydroxypropylcellulose) (HPC)
# [9] = dose: 50.0 mg/kg/injection, schedule: Q01DX009 (ip), vehicle: saline with Tween-80
# [10] = dose: 100.0 mg/kg/injection, schedule: Q01DX009 (ip), vehicle: Klucel (hydroxypropylcellulose) (HPC)
# [11] = dose: 200.0 mg/kg/injection, schedule: Q01DX009 (ip), vehicle: Klucel (hydroxypropylcellulose) (HPC)
# [12] = dose: 100.0 mg/kg/injection, schedule: Q01DX009 (ip), vehicle: saline with Tween-80
# [13] = dose: 12.5 mg/kg/injection, schedule: Q01DX009 (ip), vehicle: saline
# [14] = dose: 25.0 mg/kg/injection, schedule: Q01DX009 (ip), vehicle: saline
# [15] = dose: 50.0 mg/kg/injection, schedule: Q01DX009 (ip), vehicle: saline
# [16] = dose: 100.0 mg/kg/injection, schedule: Q01DX009 (ip), vehicle: saline
# [17] = dose: 200.0 mg/kg/injection, schedule: Q01DX009 (ip), vehicle: saline
smiles,measurement,setting,value
Cc1nn(CCO)c(C)c1N=[N+]([O-])c1c(C)nn(CCO)c1C,T/C,"dose: 3.12 mg/kg/injection, schedule: Q01DX009 (ip), vehicle: Klucel (hydroxypropylcellulose) (HPC)",107 % of control
same,T/C,[1],97 % of control
same,T/C,[2],109 % of control
same,T/C,[3],100 % of control
same,T/C,[4],111 % of control
same,T/C,[5],92 % of control
same,T/C,[6],95 % of control
same,T/C,[7],92 % of control
same,T/C,[8],91 % of control
same,T/C,[9],96 % of control
same,T/C,[10],91 % of control
CCCCC(NC(=O)C(CCC)NC(=O)OCc1ccccc1)C(=O)O (stereo not given) (Cbz-[Nva]-[Nle]-OH; configuration not given here),T/C,[10],104 % of control
same,T/C,[11],101 % of control
NC(CCl)=NCC12CC3CC(CC(C3)C1)C2,T/C,"dose: 1.5 mg/kg/injection, schedule: Q01DX009 (ip), vehicle: Klucel (hydroxypropylcellulose) (HPC)",92 % of control
same,T/C,"dose: 3.0 mg/kg/injection, schedule: Q01DX009 (ip), vehicle: Klucel (hydroxypropylcellulose) (HPC)",104 % of control
same,T/C,"dose: 3.13 mg/kg/injection, schedule: Q01DX009 (ip), vehicle: Klucel (hydroxypropylcellulose) (HPC)",92 % of control
same,T/C,"dose: 6.0 mg/kg/injection, schedule: Q01DX009 (ip), vehicle: Klucel (hydroxypropylcellulose) (HPC)",110 % of control and 101 % of control
same,T/C,[2],101 % of control
same,T/C,"dose: 12.0 mg/kg/injection, schedule: Q01DX009 (ip), vehicle: Klucel (hydroxypropylcellulose) (HPC)",114 % of control and 104 % of control
same,T/C,[4],101 % of control
same,T/C,[6],112 % of control
COc1cccc2c1C(=O)c1c(O)c3c(c(O)c1C2=O)C[C@@](O)(C(C)=O)C[C@@H]3OC1CC(N)C(O)C(C)O1 (stereo not given in full),T/C,"dose: 0.12 mg/kg/injection, schedule: Q01DX009 (ip), vehicle: water",151 % of control
same,T/C,"dose: 0.25 mg/kg/injection, schedule: Q01DX009 (ip), vehicle: water",171 % of control
same,T/C,"dose: 0.5 mg/kg/injection, schedule: Q01DX009 (ip), vehicle: water",174 % of control and 186 % of control
same,T/C,"dose: 1.0 mg/kg/injection, schedule: Q01DX009 (ip), vehicle: water",154 % of control and 285 % of control
same,T/C,"dose: 1.5 mg/kg/injection, schedule: Q01DX001 (ip), vehicle: water",187 % of control
same,T/C,"dose: 2.0 mg/kg/injection, schedule: Q01DX009 (ip), vehicle: water",242 % of control and 96 % of control
same,T/C,"dose: 3.0 mg/kg/injection, schedule: Q01DX001 (ip), vehicle: water",218 % of control
same,T/C,"dose: 6.0 mg/kg/injection, schedule: Q01DX001 (ip), vehicle: water",122 % of control
O=C1[C@H]2CCC[C@H]2[C@H]2CCC[C@@H]12,T/C,[3],102 % of control
same,T/C,[5],99 % of control
same,T/C,[7],100 % of control
same,T/C,[9],100 % of control
same,T/C,[12],100 % of control
CC(O)CNCCNc1ccc(NCCNCC(C)O)c2c1C(=O)c1c(O)ccc(O)c1C2=O (stereo not given),T/C,"dose: 1.0 mg/kg/injection, schedule: Q01DX009 (ip), vehicle: distilled water + Tween-80",169 % of control
same,T/C,"dose: 2.0 mg/kg/injection, schedule: Q01DX009 (ip), vehicle: distilled water + Tween-80",194 % of control
same,T/C,"dose: 4.0 mg/kg/injection, schedule: Q01DX009 (ip), vehicle: distilled water + Tween-80",221 % of control
same,T/C,"dose: 8.0 mg/kg/injection, schedule: Q01DX009 (ip), vehicle: distilled water + Tween-80",180 % of control
Nc1nc(SCc2ccccc2)c2ncn(C3OC(CO)CC3O)c2n1 (stereo not given),T/C,[8],116 % of control
same,T/C,[10],107 % of control
COc1cc(C(C)(C)C)cc(OC)c1C(O)(c1c(OC)cc(C(C)(C)C)cc1OC)c1c(OC)cc(C(C)(C)C)cc1OC,T/C,[3],107 % of control
same,T/C,[5],114 % of control and 106 % of control
same,T/C,[7],112 % of control and 106 % of control
same,T/C,[9],117 % of control
same,T/C,[12],109 % of control
Cc1cc(O)c(O)c(Oc2cc(C)cc(O)c2O)c1,T/C,"dose: 75.0 micrograms/kg/injection, schedule: Q01DX009 (ip), vehicle: saline",94 % of control
same,T/C,"dose: 150.0 micrograms/kg/injection, schedule: Q01DX009 (ip), vehicle: saline",104 % of control
same,T/C,"dose: 300.0 micrograms/kg/injection, schedule: Q01DX009 (ip), vehicle: saline",105 % of control
Cc1nc(C(Cl)(Cl)Cl)[nH]c(=O)c1SCCO,T/C,"dose: 25.0 mg/kg/injection, schedule: Q01DX009 (ip), vehicle: distilled water + alcohol",111 % of control
same,T/C,"dose: 50.0 mg/kg/injection, schedule: Q01DX009 (ip), vehicle: distilled water + alcohol",107 % of control
same,T/C,"dose: 100.0 mg/kg/injection, schedule: Q01DX009 (ip), vehicle: distilled water + alcohol",102 % of control
same,T/C,"dose: 200.0 mg/kg/injection, schedule: Q01DX009 (ip), vehicle: distilled water + alcohol",106 % of control
same,T/C,"dose: 400.0 mg/kg/injection, schedule: Q01DX009 (ip), vehicle: distilled water + alcohol",119 % of control
Nc1nc(F)nc2c1ncn2C1OC(COP(=O)(O)O)C(O)C1O (stereo not given),T/C,"dose: 12.5 mg/kg/injection, schedule: Q01DX009 (ip), vehicle: suspension in saline",90 % of control
same,T/C,"dose: 25.0 mg/kg/injection, schedule: Q01DX009 (ip), vehicle: suspension in saline",97 % of control
same,T/C,"dose: 50.0 mg/kg/injection, schedule: Q01DX009 (ip), vehicle: suspension in saline",93 % of control
same,T/C,"dose: 100.0 mg/kg/injection, schedule: Q01DX009 (ip), vehicle: suspension in saline",105 % of control
CCOC(=O)C(N)CSC(=O)NC (stereo not given),T/C,[13],103 % of control and 106 % of control
same,T/C,[14],108 % of control and 92 % of control
same,T/C,[15],103 % of control and 106 % of control
same,T/C,[16],108 % of control and 93 % of control
same,T/C,[17],109 % of control
same,T/C,"dose: 400.0 mg/kg/injection, schedule: Q01DX009 (ip), vehicle: saline",124 % of control
O=C1C2CC(Cl)C(SSC3CC4C(=O)N(SC(Cl)(Cl)C(Cl)Cl)C(=O)C4CC3Cl)CC2C(=O)N1SC(Cl)(Cl)C(Cl)Cl (stereo not given),T/C,[7],98 % of control
same,T/C,[9],104 % of control
same,T/C,[12],98 % of control
C=C1C(O)C2(O)OCC34C(CC5C(C)=CC(=O)C(O)C5(C)C23)OC(=O)C(OC(=O)C/C=C(\C)CCCCC)C14 (stereo not given),T/C,"dose: 4.0 mg/kg/injection, schedule: Q01DX009 (ip), vehicle: saline + alcohol",187 % of control
same,T/C,"dose: 4.8 mg/kg/injection, schedule: Q01DX009 (ip), vehicle: saline + Tween-80 + alcohol",156 % of control
same,T/C,"dose: 8.0 mg/kg/injection, schedule: Q01DX009 (ip), vehicle: saline + Tween-80 + alcohol",154 % of control
same,T/C,"dose: 8.0 mg/kg/injection, schedule: Q01DX009 (ip), vehicle: saline + alcohol",187 % of control
CN(C)CC1CCCC(CN(C)C)C1=O (stereo not given),T/C,[15],103 % of control
same,T/C,[16],97 % of control
same,T/C,[17],100 % of control
CSCCC(NC(=O)c1ccccc1)C(=O)O (stereo not given),T/C,[16],93 % of control
CCC12C[N+]3([O-])CCc4c([nH]c5ccccc45)C(C(=O)OC)(c4cc5c(cc4OC)N(C)C4C(O)(C(=O)OC)C(OC(C)=O)C6(CC)C=CCN7CCC54C76)CC(C3)C1O2 (stereo not given),T/C,"dose: 0.62 mg/kg/injection, schedule: Q01DX009 (ip), vehicle: water",112 % of control
same,T/C,"dose: 1.25 mg/kg/injection, schedule: Q01DX009 (ip), vehicle: water",104 % of control and 107 % of control
same,T/C,"dose: 2.5 mg/kg/injection, schedule: Q01DX009 (ip), vehicle: saline",185 % of control
same,T/C,"dose: 5.0 mg/kg/injection, schedule: Q01DX009 (ip), vehicle: saline",246 % of control
same,T/C,"dose: 5.0 mg/kg/injection, schedule: Q01DX009 (ip), vehicle: water",108 % of control and 261 % of control
same,T/C,"dose: 10.0 mg/kg/injection, schedule: Q01DX009 (ip), vehicle: saline",373 % of control
same,T/C,"dose: 10.0 mg/kg/injection, schedule: Q01DX009 (ip), vehicle: water",121 % of control and 309 % of control
Nc1cc2c3c(cccc3c1)C(=O)N(CCN1CCCC1)C2=O,T/C,[1],113 % of control and 106 % of control
same,T/C,[3],97 % of control and 98 % of control
same,T/C,[5],115 % of control and 107 % of control
same,T/C,[9],122 % of control
CC(OCc1ccccc1)C(NC(=O)OC(C)(C)C)C(=O)O (stereo not given),T/C,[10],92 % of control
same,T/C,[11],100 % of control
same,T/C,"dose: 400.0 mg/kg/injection, schedule: Q01DX009 (ip), vehicle: Klucel (hydroxypropylcellulose) (HPC)",96 % of control
NC(=S)c1ncn(C2OC(COC=O)C(OC=O)C2OC=O)c1NC=O (stereo not given),T/C,[6],100 % of control
same,T/C,[8],100 % of control
same,T/C,[10],92 % of control
same,T/C,[11],87 % of control
CC(=O)/C=C\c1ccc(Cl)cc1,T/C,[13],107 % of control
same,T/C,[14],103 % of control
same,T/C,[15],103 % of control
